Data published in publication PMC3665348 (Biochemical pharmacology, 2012).

Target: T1, CYP1A1 (Homo sapiens, UniProt P04798)
T1 sequence (P04798 1-512): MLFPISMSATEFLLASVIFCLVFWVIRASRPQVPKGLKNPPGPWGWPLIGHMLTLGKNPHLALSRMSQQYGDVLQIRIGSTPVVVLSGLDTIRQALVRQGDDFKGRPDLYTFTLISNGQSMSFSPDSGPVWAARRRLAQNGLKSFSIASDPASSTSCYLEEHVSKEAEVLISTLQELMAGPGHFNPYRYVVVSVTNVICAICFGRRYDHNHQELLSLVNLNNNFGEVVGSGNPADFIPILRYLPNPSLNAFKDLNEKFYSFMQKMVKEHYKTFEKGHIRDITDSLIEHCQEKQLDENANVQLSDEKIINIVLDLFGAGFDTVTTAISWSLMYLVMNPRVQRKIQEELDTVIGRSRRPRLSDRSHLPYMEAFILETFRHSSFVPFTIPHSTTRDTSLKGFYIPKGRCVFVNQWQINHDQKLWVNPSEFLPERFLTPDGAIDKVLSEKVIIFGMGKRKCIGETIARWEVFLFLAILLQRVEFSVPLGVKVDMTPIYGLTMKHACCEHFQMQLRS
Assay: procainamide hydroxylamine
Type: biochemical
Settings: 20 μM procainamide, NADPH 2 mM, MgCl2 2 mM, 20 mM PBS pH 7.4, 37°C, 30 min

Compound: CCN(CC)CCNC(=O)c1ccc(N)cc1 [I, Procainamide]
- procainamide hydroxylamine (VI) formation, UPLC-ESI-QTOFMS: CYP1A1 also had some activity.
